Measurements reported in US20260191817A1, “FIBROBLAST MODULATORS IN STROMA-RICH TUMORS” (UNIVERSITEIT GENT, priority 2022, published 2026).

Key:
4T1-Luc aggregates = test: Chick heart invasion (CHI) assay with 4T1-Luc aggregates; format: cell-based, mouse; conditions: 1 μM, in duplo
Description: Chick heart invasion assays were performed as described earlier (Bracke et al. 2014). Precultured heart fragments of 9-day-old chicken embryos were confronted with MCF-7/6 aggregates on top of a semi-solid agar at 37° C. overnight, after which the confronting pairs were cultured in suspension for 8 days at 37° C., 10% CO2 in presence or absence of a test compound (in duplo). This procedure can also be performed with aggregates of 4T1-Luc cells, for which the suspension culture of the confronting pairs is performed for 3.5 days. All compounds were evaluated at 1 μM and 100 nM; depending on the outcome higher or lower concentrations were subsequently evaluated. […] Sections of the confrontation cultures were stained with hematoxylin-eosin are blinded and scored by a trained person (Bracke et al., 2014).
In the chick heart invasion assay cancer cells are confronted with a fragment of normal tissue, so as not to neglect the contribution of the host tissue in the micro-ecosystem that governs tumor behavior. […] After eight days for MCF-7/6, or another period depending on the cell type, the interaction between the cancer cells and the PHF is evaluated histologically and classified along a 5-grades subjective scale (Bracke et al. 2014). […] Compounds that inhibit invasion of confronting cancer cells i.e. from III/IV to 0/I/II, are determined as anti-invasive. […]

[1] = system: 4T1 primary tumors and target organs for metastasis; test: 4T1-based intraductal model: histology and immunohistological stainings; format: in vivo, BALB/c mice; conditions: for CD163 staining (tumor-associated macrophages) / CD11b staining (amounts of myeloid cells) / FAP-α staining / Ly6G staining: primary tumor tissue
Description: Isolated tissue of primary tumors, axillary lymph nodes, lungs and livers was fixed in buffered 3.5% formaldehyde for 24 h at room temperature (RT) and embedded in paraffin wax. Sections of 5 μm were deparaffinized, hydrated and stained with hematoxylin and eosin (H&E). To allow analysis, sections were dehydrated and mounted.
For Masson's trichrome staining, 3-5 μm thick sections were deparaffinized, hydrated and incubated ON in Bouin's solution to improve staining quality. The following day, slides were washed in distilled H2O (dH2O) and subsequently submerged 3 times in Biebrich scarlet-acid fuchsin solution, washed again in dH2O and incubated for 20 min in phosphomolybdic-phosphotungstic acid solution. Following the incubation in phosphomolybdic-phosphotungstic acid solution, slides were not rinsed, but immediately incubated in aniline blue solution for 8 min. After a final washing step with dH2O, slides were incubated in 1% acetic acid solution for 8 min. Sections were then quickly dehydrated through 94% ethyl alcohol, absolute alcohol to remove Biebrich scarlet-acid fuchsin staining and xylene to clear the slide before mounting with Tissue-Tek glass mounting medium. The staining visualizes collagen in blue, nuclei in dark red, cytoplasm in red/pink. Quantification of positive staining was established using color deconvolution (for Masson's trichrome staining) followed by automatic counting in ImageJ.
For immunohistochemical staining, antigen retrieval was performed on 3-5 μm thick deparaffinized sections with citrate buffer (10 mM tri-sodium citrate (Santa Cruz Biotechnology, Heidelberg, Germany) for α-SMA, CD11 b, Ly6G, and CD163), pH 6 or with Tris-EDTA buffer [pH 9, 10 mM Tris, 1 mM EDTA (Thermo Fisher Scientific) for PDPN and FAP-α) at 95° C. for 30 min using a pressurized Decloaking Chamber NxGen (Biocare Medical, CA, USA). The slides were cooled down to RT for 30 min and subsequently incubated on an orbital shaker at 20 rpm in a closed microscope box with tris-buffered saline (TBS, Biocare Medical)-wetted tissue paper for all blocking, rinsing (between every incubation step with TBS, 3 times for 2 min at RT) and staining steps. To block endogenous peroxidase activity, slides were first treated with 3% H2O2 in methanol for 10 min. To block non-specific binding sites, the slides were subsequently treated with serum-free protein block (Dako, Heverlee, Belgium) for 10 min.
The slides were then stained with primary antibodies diluted in Antibody Diluent (Dako) for 1 h at RT followed by incubation with secondary antibody for 30 min at RT. The used primary antibodies and dilutions were: anti-α-SMA (1:2000, clone EPR5368, Abcam, Cambridge, UK), anti-PDPN (1:100, clone PMab-1, Abcam), anti-FAP-α (1:100, polyclonal, Abcam), anti-CD11b (1:4000, clone EPR1344, Abcam), anti-Ly6G (1:1000, clone 1A8, Biolegend, CA, USA), anti-CD163 (1:500, clone EPR19518, Abcam). The used secondary antibodies were Rat-on-Mouse HRP-Polymer (Biocare Medical) for PDPN and Ly6G, and ready to-use Dako EnVision+ Rabbit for α-SMA, FAP-α, CD11b, and CD163. For visualization of HRP-positive staining, slides were treated with a 3,3′-diaminobenzidine (DAB)-containing buffer (Dako) for 10 min at RT. Counterstaining with hematoxylin was applied for 5 min at RT, followed by dehydration and mounting of the slides with Tissue-Tek glass mounting medium. Quantification of positive staining was established using color deconvolution (for DAB and hematoxylin counterstaining) followed by automatic counting in ImageJ.

[2] = compared to DMSO treatment, data not shown
[3] = primary tumor, compared to DMSO
[4] = primary tumors, compared to DMSO

COc1cc(C(=O)/C=C/c2ccc(F)cc2)cc(OC)c1OC [Compound A1, 3-(4-Fluorophenyl)-1-(3,4,5-trimethoxyphenyl)prop2-en-1-one]
Histological invasion grade (4T1-Luc aggregates): I/II-III | size of lung and liver metastases (H&E) [1, 2]: Smaller | Masson's trichrome staining (collagen deposition) ([1]; liver tissue, compared to DMSO): significant reduction | PDPN staining ([1]; liver tissue, compared to DMSO): significantly decreased | α-SMA staining (CAFs) ([1]; liver tissue, compared to DMSO): significant reduction | CD163 staining (tumor-associated macrophages) [1]: significantly decreased | CD11b staining (amounts of myeloid cells) ([1]; compared to DMSO): significantly decreased | FAP-α staining ([1]; compared to DMSO): significantly decreased | Ly6G staining ([1]; compared to DMSO): reduction | Masson's trichrome staining (collagen deposition) [1, 3]: significantly decreased | PDPN staining ([1]; primary tumors, P<0.001): significantly decreased | α-SMA staining (amount of CAFs) [1, 4]: significantly decreased

COc1cc2oc(-c3ccc(F)cc3)cc(=O)c2c(OC)c1OC [Compound B1, 2-(4-Fluorophenyl)-5,6,7-trimethoxy-4H-chromen-4-one]
Histological invasion grade (4T1-Luc aggregates): II/II | size of axillary lymph node metastases (H&E) [1, 2]: smaller | Masson's trichrome staining (collagen deposition) ([1]; liver tissue, compared to DMSO): significant reduction | PDPN staining ([1]; liver tissue, compared to DMSO): significantly decreased | α-SMA staining (CAFs) ([1]; liver tissue, compared to DMSO): significant reduction | CD163 staining (tumor-associated macrophages) [1]: significantly decreased | CD11b staining (amounts of myeloid cells) ([1]; compared to DMSO): significantly decreased | FAP-α staining ([1]; compared to DMSO): significantly decreased | Ly6G staining ([1]; compared to DMSO): reduction | Masson's trichrome staining (collagen deposition) [1, 3]: significantly decreased | PDPN staining ([1]; primary tumors, P<0.001): significantly decreased | α-SMA staining (amount of CAFs) [1, 4]: significantly decreased
